Data set [1] relates to methemoglobin reductase (MR). The experiment in a line: Inhibition of methemoglobin reductase (MR) by luteolin. In kind it is biochemical. The settings on record: assuming about 65 mL blood per kilogram body mass in the pig; no experimental data. From the text: An optional embodiment enhances the effective of sodium nitrite by incorporating the flavonoid luteolin into a bait. Luteolin is found in botanical sources including celery, broccoli, green pepper, parsley, thyme, dandelion, perilla, chamomile, carrots, olive oil, peppermint, rosemary, oranges and other citrus, oregano, and certain palm seeds. The mechanism of sodium nitrite toxicity is to oxidize hemoglobin in the blood to methemoglobin, converting the iron atom from the ferrous form to the ferric form. Methemoglobin has a poor ability to transport oxygen to cells. Methemoglobin is naturally present in mammalian blood at 1-2% of total hemoglobin, a level that is ordinarily tempered by the enzyme methemoglobin reductase (MR). […] Because hogs have a poor ability to detoxify methemoglobin build-up, they are inherently more prone to developing high concentrations of methemoglobin upon exposure to sodium nitrite, which can quickly lead to death. In an optional embodiment, this physiology is further exploited by incorporating MR inhibitors into the bait, thus facilitating control of feral hogs while releasing less total nitrite into the environment. Luteolin is a highly-potent, commercially-available, naturally-occurring, tasteless MR inhibitor. Adding small amounts of luteolin to a nitrite-containing bait will reduce a hog's ability to detoxify methemoglobin. […]

The conditions of data set [2]: neutral or acidic pH; cited from earlier work.
Data set [3] deals with methemoglobin reductase (MR). The settings on record: MR inhibitor; cited from earlier work.
In the next data set the test system is feral hogs. The experiment in a line: Vomiting after toxicant baits are consumed. The class given is in vivo, Sus scrofa. The settings on record: preliminary results. The text has this: Another difficulty of using sodium nitrite as a toxicant is that feral hogs can sometimes vomit the baits. The acidic decomposition of sodium nitrite in gastric juices can lead to the release of noxious, gaseous by-products that can induce vomiting. This tendency can be counteracted by incorporating into the bait antiemetic compounds, antacid compounds, or both. Antacids include such compounds as sodium carbonate, sodium bicarbonate, calcium carbonate, magnesium hydroxide, magnesium carbonate, potassium carbonate, amines (e.g. from fish), and potassium bicarbonate. Antacids such as sodium carbonate also help maintain a higher pH level before the bait is consumed. Then after consumption the antacids can help neutralize gastric acid, both inhibiting the breakdown of sodium nitrite in vivo, and also helping to reduce vomiting. […] Anti-emetics can also be employed, for example taste-free ginger extracts containing gingerols. […] Gingerols have the same mechanism of action as drugs such as Zofran (ondansetron), which are prescribed in humans for the treatment of severe, chemotherapy-induced nausea. Other anti-emetics known in the art may also be used.

The next data set has as its system adult hogs. The settings on record: cited from earlier work.

The IC50 is the midpoint of a concentration-inhibition curve. For `O=c1cc(-c2ccc(O)c(O)c2)oc2cc(O)cc(O)c12` [luteolin], the “amount of luteolin needed for 50% inhibition of the MR enzyme” value in data set [1] was ~2 micrograms per kilogram body mass. Moreover, the water solubility entry in data set [2] is listed as “poorly soluble”. The IC50 in data set [3] was around 110 nM. `O=C([O-])[O-].[Na+].[Na+]` [sodium carbonate]: the “effect on vomiting after toxicant baits are consumed” value in the data set on feral hogs is given as “effective in reducing vomiting”. As for `O=NO` [sodium nitrite], the LD90 entry in the data set with adult hogs is reported as “about 189 mg/kg”.

(Values after US11992013B2, “Feral hog toxicant” (priority 2019, dated 2024).)
